# How the values were obtained:
# [1] = test system: AFP, SOX17, HOXA1, NCAM1 in EBs; assay: Immunofluorescent labeling of treated EBs; assay type: cell-based, human
# Protocol: Immunofluorescent labeling: EBs were treated for seven days with either 1.5% ethanol or 1 μM all-trans-retinoic acid (see Drug Treatment section). EBs were let to settle and perfused with 10% sucrose-PBS solution for 30 minutes at 4° C., followed by an additional step in 30% sucrose-PBS solution for 1 hr at 4° C., with gentle shaking. EBs were then frozen in Tissue-Tek OCT solution (Sakura Finetek, USA) and cut into 9 μm sections. Samples were fixed following sectioning with PBS buffered 4% formaldehyde solution for 3 minutes. Blocking was performed with PBS, 2% BSA, 0.1% Triton x-100 solution for 1 hour at room temperature. Sections were incubated overnight at 4° C. with the following primary antibodies; AFP at 1:50 dilution (SC-8399, Santa-Cruz); HOXA1 at 1:50 dilution (SC-17146, Santa-Cruz); NCAM-1 at 1:150 dilution (AF2408, R&D Systems); SOX17 at 1:400 dilution (AF1924, R&D Systems). The sections were then incubated for 1 hour with the appropriate secondary antibody (Cy-3, Jackson ImmunoResearch) at room temperature. Finally, sections were counterstained with Hoechst (B2883, Sigma) for 10 minutes at room temperature.
# Specifically, the protein levels of the fetal liver specific gene AFP and the earlier endodermal marker SOX17 were examined to assess the effects of ethanol treatment. The effect of RA treatment on neural differentiation was determined using antibodies for the HOXA1 protein and the neuronal specific protein NCAM1.
# [2] = test system: human embryoid bodies (H9 HESCs); assay: DNA microarray global gene expression profiling of treated HESC embryoid bodies; conditions: for genes whose expression was significantly changed (over two-fold) relative to untreated controls: EBs treated seven days
# Protocol: Differentiation in-vitro into embryoid bodies (EBs) was performed by trypsinizing confluent cultures using 0.25% trypsin-A in DPBS solution (Biological industries, Beit-Haemek, Israel) for 15 seconds to dissociate the colonies into large clumps. Clumps were then transferred 1:1 into non-stick petri dishes and grown in regular HESC medium but without exogenous FGF2.
# Drug treatments: Embryoid body media were supplemented with the various treatment compounds on the first day and changed on alternate days. […] Thalidomide (Sigma, T144) was dissolved in DMSO at 1000× stock solution and used at a final concentration of 10 μg/ml. All-trans-Retinoic acid (Sigma, R2625) was dissolved in DMSO at 100,000× stock solution and used at a final concentration of 1 μM.
# Microarray data analysis: Following seven days in culture, embryoid bodies were harvested and RNA was extracted using RBC Bioscience (Taipei, Taiwan) total RNA extraction minikit (YRB50) according to the manufacturer's protocol. Hybridization to GeneChip Human Gene 1.0 ST expression arrays, washing and scanning were performed according to the manufacturer's protocol (Affymetrix). Arrays were analyzed using RMA probeset condensation algorithm (Expression Console, Affymetrix). […] Tissue specific genes were identified by comparing the expression of each of the five most relevant tissues to the mean expression of all other tissues (testis, brain, heart, spleen, skeletal muscle, kidney, liver, and breast). The top 200 genes by fold change for every tissue were regarded to be tissue specific genes.
# Genes were considered differentially expressed when changed over two-fold. […] Significance was calculated separately for each test using a Chi-Square independence test and corrected for multiple testing (Bonferroni). […] Functional classification and significance were performed using the DAVID online functional annotation tool (worldwidewebdotdaviddotabccdotncifcrfdotgov/) using default settings, with a minimum p-value of 0.0001. General annotations with over 2000 members were removed from the analysis.
# [3] = test system: HiPSC EBs (hTERT-BJ1 derived clone #28); assay: DNA microarray gene expression profiling of RA-treated HiPSC embryoid bodies; assay type: cell-based, human; conditions: RA 1 μM, seven days
# Protocol: Thalidomide was tested twice and caffeine once.
# human = conditions: in vivo; cited from earlier work
# rodents = conditions: in vivo; cited from earlier work
# mouse = conditions: in vivo; cited from earlier work
# [4] = lithium chloride 1 mM, caffeine 50 mg/ml, RA 1 μM, thalidomide 10 μg/ml
# [5] = seven days, RA 1 μM, thalidomide 10 μg/ml
# [6] = Gene Ontology functional annotation (DAVID), thalidomide 10 μg/ml
smiles,measurement,setting,value
"CC1=C(/C=C/C(C)=C/C=C/C(C)=C/C(=O)O)C(C)(C)CCC1 [RA, All-trans-Retinoic acid]",NCAM1 abundance at the protein level,"[1]; 1 μM all-trans-retinoic acid, seven days",increase
same,differentiation into the neuronal lineage (HOXA1 and NCAM1 labeling),[1]; RA treatment,higher differentiation into the neuronal lineage
same,genes whose expression was significantly changed (over two-fold) relative to untreated controls,[2]; [4],several hundred
same,"homeobox protein genes enriched in upregulated genes, fold above expected frequency","[2]; Gene Ontology functional annotation (DAVID), RA 1 μM",14.1 fold
same,expression of anterior HoxA and HoxB genes,"[2]; HESC EBs, RA 1 μM, seven days",specifically upregulated
same,HOXA1 overexpression at the mRNA level,"[2]; RA 1 μM, seven days, relative to control",13.6 fold
same,fold enrichment of heart specific genes in downregulated genes,"[2]; seven days, RA 1 μM",5.3
same,fold enrichment of brain specific genes in upregulated genes,[2]; [5],2.6 fold
same,expression of anterior HoxA and HoxB genes,[3],specifically upregulated
CC(=O)Oc1ccccc1C(=O)O [aspirin],teratogenicity in humans,human,not in humans
same,teratogenicity in rodents,rodents,teratogenic
"CCO [ethanol, Ethanol]",AFP staining (protein level),"[1]; 1.5% ethanol, seven days",dramatic increase
same,SOX17 staining (protein level),"[1]; 1.5% ethanol, seven days",dramatic increase
same,AFP staining (protein level),"[1]; 1.5% ethanol, seven days, listed as Ethanol",elevation of AFP staining
same,enriched functional annotations for downregulated genes,"[2]; DAVID functional annotation, ethanol",no significantly enriched functional annotations
same,genes whose expression was significantly changed (over two-fold) relative to untreated controls,[2]; 0.5% ethanol (v/v),little or no effect
same,genes whose expression was significantly changed (over two-fold) relative to untreated controls,"[2]; ethanol 1.5% and 2%, analyzed together",several hundred
same,"liver protein genes, upregulated functional group enrichment","[2]; Gene Ontology functional annotation (DAVID), ethanol treated EBs",9.3 fold
same,"expression of later adult hepatic markers (albumin, alcohol dehydrogenase genes)",[2]; ethanol treated EBs,not upregulated
same,"expression of early hepatic markers (AFP, transthyretin, apolipoprotein and fibrinogen genes)",[2]; high ethanol (1.5% and 2%),specifically upregulated
"O=C1CCC(N2C(=O)c3ccccc3C2=O)C(=O)N1 (centres unmarked) [thalidomide, Thalidomide]",teratogenicity in the mouse,mouse,not identified prospectively as such
same,genes whose expression was significantly changed (over two-fold) relative to untreated controls,[2]; [4],several hundred
same,"downregulation of oxidative stress response genes, enrichment",[2]; [6],15.8 fold
same,"nervous system development genes affected, enrichment",[2]; [6],2.5 fold
same,"transforming growth factor beta genes affected, enrichment",[2]; [6],29.6 fold
same,"upregulation of genes responsible for metabolism of xenobiotics, enrichment",[2]; [6],11.5 fold
same,fold enrichment of brain specific genes in upregulated genes,[2]; [5],12.5 fold
same,fold enrichment of liver specific genes in downregulated genes,"[2]; seven days, thalidomide 10 μg/ml",4.4 fold
same,teratogenicity in humans,human,strong human teratogen
